In general, IC50 refers to the concentration needed to halve the response being measured. As a reminder, the EC50 is the concentration that produces a half-maximal response.

Experimental findings from US8822510B2, “Substituted 3-phenyl-1,2,4-Oxadiazole compounds” (Bristol-Myers Squibb Company, priority 2010, dated 2014) are described below.

For test [1], the system named is circulating lymphocytes. Nature of the test: Blood Lymphocyte Reduction Assay (BLR) in Rodents. The format is in vivo. The conditions noted are these: Lewis rats, oral, vs vehicle group. How it is done: Lewis rats were dosed orally with test article (as a solution or suspension in the vehicle) or vehicle alone (polyethylene glycol 300, “PEG300”). Blood was drawn at 4 hr and 24 h by retro-orbital bleeding. Blood lymphocyte counts were determined on an ADVIA 120 Hematology Analyzer (Siemens Healthcare Diagnostics). The results were measured as a reduction in the percentage of circulating lymphocytes as compared to the vehicle treated group at the 4 hr and 24 hr measurement. The results represent the average results of all animals within each treatment group (n=3-4).
The following examples were tested in the Blood Lymphocyte Reduction assay (BLR) described hereinabove and the results are shown in Table C for rats.

Test [2] has as its target T1, S1P1 (Homo sapiens (Human), UniProt P21453). Kind of test: S1P1 Binding Assay. The conditions noted are these: 33P-S1P ligand, membranes from CHO cells expressing human S1P1. How it is done:
Membranes were prepared from CHO cells expressing human S1P1. Cells pellets (1×10^8 cells/pellet) were suspended in buffer containing 20 mM HEPES, pH 7.5, 50 mM NaCl, 2 mM EDTA and Protease Inhibitor cocktail (Roche), and disrupted on ice using the Polytron homogenizer. The homogenate was centrifuged at 20,000 rpm (48,000 g) and the supernatant was discarded. The membrane pellets were resuspended in buffer containing 50 mM HEPES, pH 7.5, 100 mM NaCl, 1 mM MgCl2, 2 mM EDTA and stored in aliquots at […] after protein concentration determination.
Membranes (2 μg/well) and 0.03 nM final concentration of 33P-S1P ligand (1 mCi/ml, American Radiolabeled Chemicals) diluted in assay buffer (50 mM HEPES, pH7.4, 5 mM MgCl2, 1 mM CaCl2, 0.5% fatty acid free BSA, 1 mM NaF) were added to the compound plates (384 Falcon v-bottom plate (0.5 μl/well in a 11 point, 3-fold dilution). Binding was performed for 45 minutes at room temperature, terminated by collecting the membranes onto 384-well Millipore FB filter plates, and radioactivity was measured by TOPCOUNT®. The competition data of the test compounds over a range of concentrations was plotted as percentage inhibition of radioligand specific binding. The IC50 is defined as the concentration of competing ligand needed to reduce specific binding by 50%.
Table A below lists S1P1 Binding IC50 values from the following examples of this invention measured in the S1P1 binding assay described hereinabove. The results in Table A were rounded to two digits.

Test [3] has as its target S1P3 (Homo sapiens (Human), UniProt Q99500). Nature of the test: Receptor [35S] GTPγS Binding Assay, S1P3. The format is biochemical. The conditions noted are these: membranes from EDG3-Ga15-b1a HEK293T cells. How it is done: (§1) Compounds were loaded in a 384 Falcon v-bottom plate (0.5 μl/well in a 11 point, 3-fold dilution). Membranes prepared from S1P1/CHO cells or EDG3-Ga15-b1a HEK293T cells were added to the compound plate (40 μl/well, final protein 3 μg/well) with MULTIDROP®. [^35S] GTP (1250 Ci/mmol, Perkin Elmer) was diluted in assay buffer: 20 mM HEPES, pH7.5, 10 mM MgCl2, 150 mM NaCl, 1 mM EGTA, 1 mM DTT, 10 μM GDP, 0.1% fatty acid free BSA, and 10 μg/ml Saponin to 0.4 nM. 40 μl of the [^35S] GTP solution was added to the compound plate with a final concentration of 0.2 nM. The reaction was kept at room temperature for 45 min. At the end of incubation, all the mixtures in the compound plate were transferred to Millipore 384-well FB filter plates via the VELOCITY 11® Vprep liquid handler. The filter plate was washed with water 4 times by using the manifold Embla plate washer and dried at 60° C. for 45 min. MicroScint 20 scintillation fluid (30 μl) was added to each well for counting on the Packard TOPCOUNT®. EC50 is defined as the agonist concentration that corresponds to 50% of the Ymax (maximal response) obtained for each individual compound tested. The results in Table B were rounded to two digits.
A smaller value for GTPγS S1P1 EC50 value indicated greater activity for the compound in the GTPγS S1P1 binding assay. A larger value for the GTPγS S1P3 EC50 value indicated less activity in the GTPγS S1P3 binding assay.

Test [4] deals with T1, S1P1. Kind of test: Receptor [35S] GTPγS Binding Assay, S1P1. The class given is biochemical. The settings on record: membranes from S1P1/CHO cells. The protocol: as §1, with “Membranes” for “Compounds were loaded in a 384 Falcon v-bottom plate (0.5 μl/well in a 11 point, 3-fold dilution). Membranes”, “EC50 is defined as the agonist concentration that corresponds to 50% of the Ymax (maximal response) obtained for each individual compound tested.” left out, “digits. […]” for “digits.”
Background: Binding of GTPγS marks nucleotide exchange on a G protein.

Where only a bound is given, the exact number is not on record here.

T1 sequence (P21453 whole entry): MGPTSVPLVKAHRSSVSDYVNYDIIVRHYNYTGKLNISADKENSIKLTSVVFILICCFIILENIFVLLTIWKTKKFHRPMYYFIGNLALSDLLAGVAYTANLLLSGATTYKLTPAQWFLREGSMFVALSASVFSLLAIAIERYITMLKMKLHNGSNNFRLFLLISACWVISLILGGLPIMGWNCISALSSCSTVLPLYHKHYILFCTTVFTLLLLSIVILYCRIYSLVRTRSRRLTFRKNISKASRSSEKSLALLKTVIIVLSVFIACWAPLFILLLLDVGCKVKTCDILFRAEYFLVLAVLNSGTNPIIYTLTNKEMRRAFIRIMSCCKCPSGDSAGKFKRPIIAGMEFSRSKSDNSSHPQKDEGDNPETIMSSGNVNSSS
Sequence of S1P3 (Q99500 whole entry): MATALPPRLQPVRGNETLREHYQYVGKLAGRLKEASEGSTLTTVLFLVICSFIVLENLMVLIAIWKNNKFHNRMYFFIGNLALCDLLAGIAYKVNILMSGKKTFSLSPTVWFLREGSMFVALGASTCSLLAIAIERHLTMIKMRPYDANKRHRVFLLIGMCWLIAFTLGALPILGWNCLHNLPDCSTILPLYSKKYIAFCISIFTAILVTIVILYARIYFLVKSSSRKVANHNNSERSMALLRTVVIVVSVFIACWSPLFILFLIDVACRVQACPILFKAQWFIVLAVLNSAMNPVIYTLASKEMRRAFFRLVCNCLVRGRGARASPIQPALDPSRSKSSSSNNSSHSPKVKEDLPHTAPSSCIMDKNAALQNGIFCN

On to `CC(C)(CCCc1nc(-c2ccc(CN3CC(C(=O)O)C3)cc2)no1)c1ccc(F)cc1` [Example 128, 1-(4-(5-(4-(4-fluorophenyl)-4-methylpentyl)-1,2,4-oxadiazol-3-yl)benzyl)-3-azetidinecarboxylic acid], for which, in test [1] (10.0 mg/kg), the “% REDUCTION IN LYMPHOCYTES AT 4 HR.” value is recorded as 80%.

`O=C(O)C1CN(Cc2ccc(-c3noc(CCC4(c5cccnc5)CCOCC4)n3)cc2)C1` [Example 108, 1-(4-(5-(2-(4-(3-pyridinyl)tetrahydro-2H-pyran-4-yl)ethyl)-1,2,4-oxadiazol-3-yl)benzyl)-3-azetidinecarboxylic acid] registered an IC50 in test [2] of 861 nM. In addition, the EC50 in test [3] is greater than 62500 nM; in test [4], 7360 nM.

For `O=C(O)C1CN(Cc2ccc(-c3noc(CCC4(c5ccccc5)CCCCC4)n3)cc2)C1` [Example 1, 1-(4-(5-(2-(1-phenylcyclohexyl)ethyl)-1,2,4-oxadiazol-3-yl)benzyl)azetidine-3-carboxylic acid], the “% REDUCTION IN LYMPHOCYTES AT 4 HR.” value in test [1] (1.0 mg/kg) came to 75%.

`O=C(O)C[C@@H]1CC(c2ccc(-c3noc(CCC4(c5ccccc5)CCCCC4)n3)cc2)=NO1` [Example 133, (S)-(3-(4-(5-(2-(1-phenylcyclohexyl)ethyl)-1,2,4-oxadiazol-3-yl)phenyl)-4,5-dihydro-5-isoxazolyl)acetic acid]: the “% REDUCTION IN LYMPHOCYTES AT 4 HR.” value in test [1] (20.0 mg/kg) is given as 84%.

In the case of `O=C(O)C1CN(Cc2ccc(-c3noc(/C=C/C4(c5cccc(Cl)c5)CCCCC4)n3)cc2)C1` [Example 90, 1-(4-(5-((E)-2-(1-(3-chlorophenyl)cyclohexyl)vinyl)-1,2,4-oxadiazol-3-yl)benzyl)-3-azetidinecarboxylic acid], the “% REDUCTION IN LYMPHOCYTES AT 4 HR.” value in test [1] (5.0 mg/kg) is listed as 85%.

`O=C(O)C1CN(Cc2ccc(-c3noc(/C=C/C4(c5ccc(Cl)cc5)CCCCC4)n3)cc2)C1` [Example 92, 1-(4-(5-((E)-2-(1-(4-chlorophenyl)cyclohexyl)vinyl)-1,2,4-oxadiazol-3-yl)benzyl)-3-azetidinecarboxylic acid]: the half-maximal inhibitory concentration (IC50) in test [2] stood at 45.6 nM. Besides, the EC50 in test [3] amounted to 421 nM; in test [4] it was 36.9 nM.

For `O=C(O)C1CN(Cc2ccc(-c3noc(CCCC4(c5ccc(F)cc5)CCCCC4)n3)cc2)C1` [Example 9, 1-(4-(5-(3-(1-(4-fluorophenyl)cyclohexyl)propyl)-1,2,4-oxadiazol-3-yl)benzyl)azetidine-3-carboxylic acid], in test [2], the IC50 came to 0.47 nM. For the same compound, the EC50 in test [3] was determined as 16.4 nM; in test [4] it was 0.23 nM.

Regarding `Cc1cc(-c2noc(/C(F)=C/C3(c4ccc(Cl)cc4)CC3)n2)cc(C)c1OC[C@@H](O)CO` [Example 48, (2S)-3-(4-(5-((Z)-2-(1-(4-chlorophenyl)cyclopropyl)-1-fluorovinyl)-1,2,4-oxadiazol-3-yl)-2,6-dimethylphenoxy)-1,2-propanediol], in test [1] (10.0 mg/kg), the “% REDUCTION IN LYMPHOCYTES AT 4 HR.” value is 83%.

`Cc1cc(-c2noc(/C=C/C3(c4ccc(Cl)cc4)CCCCC3)n2)cc(C)c1OC[C@@H](O)CO` [Example 52, (2S)-3-(4-(5-((E)-2-(1-(4-chlorophenyl)cyclohexyl)vinyl)-1,2,4-oxadiazol-3-yl)-2,6-dimethylphenoxy)-1,2-propanediol]: the 50% inhibitory concentration (IC50) in test [2] worked out at 5.75 nM. In addition, the concentration giving a half-maximal response (EC50) in test [3] came out at 139 nM; in test [4], 8.1 nM.

In test [2], `O=C(O)C1CN(Cc2ccc(-c3noc(CCCC4(c5ccc(Cl)cc5)CCCCC4)n3)cc2)C1` [Example 98, 1-(4-(5-(3-(1-(4-chlorophenyl)cyclohexyl)propyl)-1,2,4-oxadiazol-3-yl)benzyl)-3-azetidinecarboxylic acid] had a concentration for half-maximal inhibition (IC50) of 0.54 nM. The values for the EC50 in test [3] and in test [4] were 27.4 nM and 0.7 nM, respectively.
